We go through 1 sequence from patent EP0284492A1, “Peptidic fractions inducing protective antibodies against the bovine leukemia virus, process for obtaining such fractions, their coding sequences and vaccines produced by these fractions” (RHONE MERIEUX, priority 1987, dated 1988).

For assay [1], the system named is sérums d'animaux infectés par le virus BLV. It counts as binding, bovin, ovin.
The test system of a further assay is pseudotypes VSV (BLV). It counts as cell-based, virus BLV.

Ends that are not written are not given here.

Turning to “EPRCPYVGADHFDCP (cysteine pairing not given here) [peptide 78-92, séquence 78-92 de la gp51]”, the “reconnaissance de l'oligopeptide par les sérums” value in assay [1] is “reconnu à la fois par le sérum bovin (sérum n° 15) et le sérum ovin (sérum n° 65)”. For the same sequence, in the assay on pseudotypes VSV (BLV), the “capacité à inhiber les pseudotypes” value is “remarquable capacité à inhiber les pseudotypes” and the “induction d'anticorps neutralisants” value is on record as “induire des anticorps neutralisants”.
